{"source": "patent US9296734B2", "about": "(AMGEN INC., priority 2013, dated 2016)", "note": "pIC50: −log10 of the molar value.", "data": [{"target": "Cathepsin D (Cat D) (Homo sapiens (Human), UniProt P07339)", "sequence (P07339 65-412, species assumed)": "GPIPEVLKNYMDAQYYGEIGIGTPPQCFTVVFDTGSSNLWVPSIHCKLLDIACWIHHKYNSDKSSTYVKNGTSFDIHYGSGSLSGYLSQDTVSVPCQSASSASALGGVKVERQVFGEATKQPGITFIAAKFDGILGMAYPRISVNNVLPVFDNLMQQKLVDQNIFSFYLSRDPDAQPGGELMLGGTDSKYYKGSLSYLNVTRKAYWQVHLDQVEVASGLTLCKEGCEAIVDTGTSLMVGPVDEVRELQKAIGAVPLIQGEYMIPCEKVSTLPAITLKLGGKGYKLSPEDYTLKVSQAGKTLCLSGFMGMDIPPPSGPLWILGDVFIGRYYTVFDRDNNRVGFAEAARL", "experiment": "In vitro enzymatic Cathepsin D (Cat D) FRET assay", "type": "biochemical", "conditions": "average IC50, cathepsin D enzyme assay; read-out: CatD IC50", "procedure": "(§1) In Vitro Enzymatic Cathepsin D (Cat D) FRET (Fluorescence Resonance Energy Transfer) Assay\n(§2) Recombinant Cat D was expressed in CHO cells. The assay buffer for CathepsinD is 0.05 M citrate pH 3.5, 10% DMSO final, 5 mM CHAPS. […] The assays are effectively started by the addition of different FRET substrates (20 nM for Cat D) and the combination is incubated for one hour. The FRET assay is terminated with by addition of Tris buffer, which raises the pH to neutrality, and the fluorescence is determined. The FRET substrate is a peptide with commercially available fluorophore and quencher, on opposite sides of the BACE cleavage site. […] Proteolytic cleavage of the FRET substrate releases quenching of fluorescence (Cat D excitation 500 nm and emission 580 nm).\n(§3) In addition, the cathepsin D and cathepsin E assays are described in PCT publication WO2011069934.", "values": [{"smiles": "COc1cccnc1Nc1ccc(F)c([C@]2(CF)C[C@@H](C(F)(F)F)OC(N)=N2)c1", "note": "[Example 15, (4S,6S)-4-(2-fluoro-5-((3-methoxypyridin-2-yl)-amino)phenyl)-4-(fluoromethyl)-6-(trifluoromethyl)-5,6-dihydro-4H-1,3-oxazin-2-amine]", "pIC50": 2.97}, {"smiles": "NC1=N[C@](CF)(c2cc(Nc3ncc(F)c4cc(Cl)cnc34)ccc2F)C[C@@H](C(F)(F)F)O1", "note": "[Example 19, (4S,6S)-4-(5-((3-chloro-5-fluoro-1,7-naphthyridin-8-yl)amino)-2-fluorophenyl)-4-(fluoromethyl)-6-(trifluoromethyl)-5,6-dihydro-4H-1,3-oxazin-2-amine]", "pIC50": "< 3.88"}, {"smiles": "NC1=N[C@](CF)(c2cc(Nc3ncnc4sc(C(F)F)nc34)ccc2F)C[C@@H](C(F)(F)F)O1", "note": "[Example 21, (4S,6S)-4-(5-((2-(difluoromethyl)thiazolo[5,4-d]pyrimidin-7-yl)amino)-2-fluorophenyl)-4-(fluoromethyl)-6-(trifluoromethyl)-5,6-dihydro-4H-1,3-oxazin-2-amine]", "pIC50": "< 3.40"}, {"smiles": "C#CCOc1cnc(C(=O)Nc2ccc(F)c([C@]3(CF)C[C@@H](C(F)(F)F)OC(N)=N3)c2)cn1", "note": "[Example 35, N-(3-((4S,6S)-2-amino-4-(fluoromethyl)-6-(trifluoromethyl)-5,6-dihydro-4H-1,3-oxazin-4-yl)-4-fluorophenyl)-5-(prop-2-yn-1-yloxy)pyrazine-2-carboxamide]", "pIC50": "< 3.40"}, {"smiles": "NC1=N[C@](CF)(c2cc(NC(=O)c3nn(C(F)F)cc3Cl)ccc2F)C[C@@H](C(F)(F)F)O1", "note": "[Example 36, N-(3-((4S,6S)-2-amino-4-(fluoromethyl)-6-(trifluoromethyl)-5,6-dihydro-4H-1,3-oxazin-4-yl)-4-fluorophenyl)-4-chloro-1-(difluoromethyl)-1H-pyrazole-3-carboxamide]", "pIC50": 2.62}, {"smiles": "Cc1nc(OCC(F)(F)F)cnc1C(=O)Nc1ccc(F)c([C@]2(CF)C[C@@H](C(F)(F)F)OC(N)=N2)c1", "note": "[Example 38, N-(3-((4S,6S)-2-amino-4-(fluoromethyl)-6-(trifluoromethyl)-5,6-dihydro-4H-1,3-oxazin-4-yl)-4-fluorophenyl)-3-methyl-5-(2,2,2-trifluoroethoxy)pyrazine-2-carboxamide]", "pIC50": "< 3.40"}, {"smiles": "NC1=N[C@](CF)(c2cc(NC(=O)c3ncc(C(F)(F)F)cc3Cl)ccc2F)C[C@@H](C(F)(F)F)O1", "note": "[Example 44, N-(3-((4S,6S)-2-amino-4-(fluoromethyl)-6-(trifluoromethyl)-5,6-dihydro-4H-1,3-oxazin-4-yl)-4-fluorophenyl)-3-chloro-5-(trifluoromethyl)picolinamide]", "pIC50": "< 3.40"}, {"smiles": "NC1=N[C@](CF)(c2cc(NC(=O)c3cnc(OCc4ncco4)cn3)ccc2F)C[C@@H](C(F)(F)F)O1", "note": "[Example 46, N-(3-((4S,6S)-2-amino-4-(fluoromethyl)-6-(trifluoromethyl)-5,6-dihydro-4H-1,3-oxazin-4-yl)-4-fluorophenyl)-5-(oxazol-2-ylmethoxy)pyrazine-2-carboxamide]", "pIC50": "< 3.40"}]}, {"target": "Cathepsin D (Cat D) (Homo sapiens (Human), UniProt P07339)", "experiment": "In vitro enzymatic Cathepsin D (Cat D) FRET assay", "type": "biochemical", "conditions": "average IC50; read-out: CatD IC50", "procedure": "as §1, §2, §3", "values": [{"smiles": "COc1cnc(C(=O)Nc2ccc(F)c([C@]3(CF)C[C@H](C(F)(F)F)OC(N)=N3)c2)cn1", "note": "(racemic) [Example 25, N-(3-((4S,6R)-2-amino-4-(fluoromethyl)-6-(trifluoromethyl)-5,6-dihydro-4H-1,3-oxazin-4-yl)-4-fluorophenyl)-5-methoxypyrazine-2-carboxamide]", "pIC50": "< 3.40"}, {"smiles": "Cc1cc(Cl)cnc1C(=O)Nc1ccc(F)c([C@]2(C)C[C@@H](C(F)(F)F)OC(N)=N2)c1", "note": "(racemic) [Example 31, N-(3-((4SR,6SR)-2-amino-4-methyl-6-(trifluoromethyl)-5,6-dihydro-4H-1,3-oxazin-4-yl)-4-fluorophenyl)-5-chloro-3-methyl-2-pyridinecarboxamide]", "pIC50": 3.69}, {"smiles": "N#Cc1cnc2c(Nc3ccc(F)c([C@]4(CF)C[C@@H](C(F)(F)F)OC(N)=N4)c3)ncc(F)c2c1", "note": "[Example 10, 8-((3-((4S,6S)-2-amino-4-(fluoromethyl)-6-(trifluoromethyl)-5,6-dihydro-4H-1,3-oxazin-4-yl)-4-fluorophenyl)amino)-5-fluoro-1,7-naphthyridine-3-carbonitrile]", "pIC50": "< 4.36"}, {"smiles": "NC1=N[C@](CF)(c2cc(Nc3ncnc4cc(Cl)cnc34)ccc2F)C[C@@H](C(F)(F)F)O1", "note": "[Example 11, (4S,6S)-4-(5-((7-chloropyrido[3,2-d]pyrimidin-4-yl)amino)-2-fluorophenyl)-4-(fluoromethyl)-6-(trifluoromethyl)-5,6-dihydro-4H-1,3-oxazin-2-amine]", "pIC50": 4.26}, {"smiles": "COc1cnc2c(Nc3ccc(F)c([C@]4(CF)C[C@@H](C(F)(F)F)OC(N)=N4)c3)nccc2c1", "note": "[Example 12, (4S,6S)-4-(2-fluoro-5-((3-methoxy-1,7-naphthyridin-8-yl)amino)phenyl)-4-(fluoromethyl)-6-(trifluoromethyl)-5,6-dihydro-4H-1,3-oxazin-2-amine]", "pIC50": "< 3.40"}, {"smiles": "COc1cnc2c(Nc3ccc(F)c([C@]4(CF)C[C@@H](C(F)(F)F)OC(N)=N4)c3)ncnc2c1", "note": "[Example 13, (4S,6S)-4-(2-fluoro-5-((7-methoxypyrido[3,2-d]pyrimidin-4-yl)amino)phenyl)-4-(fluoromethyl)-6-(trifluoromethyl)-5,6-dihydro-4H-1,3-oxazin-2-amine]", "pIC50": "< 3.40"}, {"smiles": "COc1cnc(C(=O)Nc2ccc(F)c([C@]3(CF)C[C@@H](C(F)(F)F)OC(N)=N3)c2)c(C)n1", "note": "[Example 33, N-(3-((4S,6S)-2-amino-4-(fluoromethyl)-6-(trifluoromethyl)-5,6-dihydro-4H-1,3-oxazin-4-yl)-4-fluorophenyl)-5-methoxy-3-methylpyrazine-2-carboxamide]", "pIC50": "< 3.40"}, {"smiles": "COc1ccc(C(=O)Nc2ccc(F)c([C@]3(CF)C[C@@H](C(F)(F)F)OC(N)=N3)c2)nc1", "note": "[Example 49, N-(3-((4S,6S)-2-amino-4-(fluoromethyl)-6-(trifluoromethyl)-5,6-dihydro-4H-1,3-oxazin-4-yl)-4-fluorophenyl)-5-methoxypicolinamide]", "pIC50": "< 3.40"}, {"smiles": "NC1=N[C@](CF)(c2cc(NC(=O)c3ncc(Br)cc3Cl)ccc2F)C[C@@H](C(F)(F)F)O1", "note": "[Example 56, N-(3-((4S,6S)-2-amino-4-(fluoromethyl)-6-(trifluoromethyl)-5,6-dihydro-4H-1,3-oxazin-4-yl)-4-fluorophenyl)-5-bromo-3-chloro-2-pyridinecarboxamide]", "pIC50": "< 3.40"}, {"smiles": "NC1=N[C@](CF)(c2cc(NC(=O)c3ncc(Cl)cc3Cl)ccc2F)C[C@@H](C(F)(F)F)O1", "note": "[Example 58, N-(3-((4S,6S)-2-amino-4-(fluoromethyl)-6-(trifluoromethyl)-5,6-dihydro-4H-1,3-oxazin-4-yl)-4-fluorophenyl)-3,5-dichloropicolinamide]", "pIC50": 2.62}, {"smiles": "N#Cc1ccc(C(=O)Nc2ccc(F)c([C@]3(CF)C[C@@H](C(F)(F)F)OC(N)=N3)c2)nc1", "note": "[Example 59, N-(3-((4S,6S)-2-amino-4-(fluoromethyl)-6-(trifluoromethyl)-5,6-dihydro-4H-1,3-oxazin-4-yl)-4-fluorophenyl)-5-cyanopicolinamide]", "pIC50": "< 3.40"}]}, {"target": "Cathepsin D (Cat D) (Homo sapiens (Human), UniProt P07339)", "experiment": "In vitro enzymatic Cathepsin D (Cat D) FRET assay", "type": "biochemical", "conditions": "average; read-out: CatD IC50", "procedure": "as §1, §2, §3", "values": [{"smiles": "C#CCOc1cnc(C(=O)Nc2ccc(F)c([C@]3(C)C[C@@H](C(F)(F)F)OC(N)=N3)c2)cn1", "note": "[Example 45, N-(3-((4S,6S)-2-amino-4-methyl-6-(trifluoromethyl)-5,6-dihydro-4H-1,3-oxazin-4-yl)-4-fluorophenyl)-5-(prop-2-yn-1-yloxy)pyrazine-2-carboxamide]", "pIC50": 2.59}]}]}
